Paper PMC4210175 (Journal of Chemical Information and Modeling, 2014)

Target: T1, Mycobacterium thermoresistibile MycP1 (Mycolicibacterium thermoresistibile, UniProt G7CDQ2)
T1 sequence (G7CDQ2 19-443): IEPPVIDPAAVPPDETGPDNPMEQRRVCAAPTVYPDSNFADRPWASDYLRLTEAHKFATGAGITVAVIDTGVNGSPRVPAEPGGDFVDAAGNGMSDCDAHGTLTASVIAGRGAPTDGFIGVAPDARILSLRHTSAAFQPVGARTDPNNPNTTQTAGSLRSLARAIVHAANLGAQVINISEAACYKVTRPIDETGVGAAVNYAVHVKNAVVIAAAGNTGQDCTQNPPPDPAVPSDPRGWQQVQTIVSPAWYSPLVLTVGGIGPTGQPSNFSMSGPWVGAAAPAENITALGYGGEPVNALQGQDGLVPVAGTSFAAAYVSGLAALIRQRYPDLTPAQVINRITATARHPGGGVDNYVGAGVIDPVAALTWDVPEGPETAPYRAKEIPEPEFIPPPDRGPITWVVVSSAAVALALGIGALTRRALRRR
Assay: In vitro quenched fluorescent peptide assay of MycP1 inhibitors
Type: biochemical
Conditions: for inhibition at 150 µM: read-out: % inhibition at 150 μM

| SMILES | IC50 | inhibition at 150 µM |
| --- | --- | --- |
| N=C(N)c1ccc(/C=C/c2ccc(C(=N)N)cc2O)cc1 [compound 11, Hydroxystilbamidine] | 85.6 µM | 79.1% |
| N=C(N)c1ccc(/N=N/Nc2ccc(C(=N)N)cc2)cc1 [compound 12, Diminazene] | – | 58% |
| CC(=O)Nc1ccc(/C=N/NC(N)=S)cc1 [compound 13, Thiacetazone] | – | 80.1% |
